According to patent US20090048157A1, “USE OF ORGANIC COMPOUNDS” (priority 2004, published 2009):

Tests used:
Type in all cases: in vivo, human
[1] = test system: Serum CTX-I (bone resorption marker); assay: Serum CTX-I (CrossLaps) after single doses of oral or iv salmon calcitonin in male volunteers; conditions: eight male volunteers, oral and iv SCT
Source text: Serum CTX-I, or CrossLaps® (Nordic Bioscience Diagnostics A/S, cat. no. 4CRL4000) is an enzyme-immunoassay for quantitative assessment of bone resorption, and has been cleared by the FDA. It is based on two highly specific monoclonal antibodies against the amino acid sequence of EKAHD-β-GGR originating from the C-telopeptide of type I collagen. The aspartic acid residue (D) is β-isomerized. Standards, control, or unknown serum samples are pipetted into the appropriate microtitre wells coated with streptavidin, followed by application of a mixture of a biotinylated antibody and a peroxidase-conjugated antibody. Then, a complex between the CTX antigens, biotinylated antibody and peroxidase-conjugated antibody is generated, and this complex binds to the streptavidin surface via the biotinylated antibody. Following the one-step incubation at room temperature, the wells are emptied and washed. A chromogenic substrate is added and the colour reaction is stopped with sulfuric acid. Finally, the absorbance is measured.
The effect of oral salmon calcitonin (SCT) on the serum levels of CTX-I is investigated by randomising study participants (eight male volunteers) to receive three. single doses of SCT, a verum intravenous infusion of SCT or placebo in a five-period cross-over design (the study is described in detail in Buchlin et al., J Bone Miner Res., (2002); 17:1478-1485).

[2] = test system: N-MID Osteocalcin (bone formation marker); assay: N-MID Osteocalcin ELISA response to oral SCT in postmenopausal women, clinical trial; conditions: 0.15-2.5 mg daily or 1.0 mg every other day, compared with placebo
Source text: The N-MID® Osteocalcin ELISA (Nordic Bioscience Diagnostics A/S, cat. no. 3OSC4000) is an enzyme innuosorbent assay for quantitative assessment of bone formation, and has been cleared by the FDA. It is based upon the application of two highly specific monoclonal antibodies (Mabs) against human osteocalcin. An antibody recognizing the midregion (amino acids 20-29) is used as the capture antibody and for detection a peroxidase conjugated antibody recognizing the N-terminal region (amino acids 10-16) is used. In addition to intact osteocalcin (amino acid 1-49) the N-terminal-Mid fragment (amino acids 1-43) is also detected. […] Finally, the absorbance is measured.
(§1) The response of serum CTX-I and N-MID® Osteocalcin to SCT in postmenopausal women is examined in a multi-center, randomised, double-blind, placebo-controlled, dose-ranking clinical trial including 277 study participants aged 55-85 years (the study has been described in detail in Tank{acute over (0)} et al., J Bone Miner Res., in print). The study participants receives active treatment (daily doses of 0.15, 0.4, 1.0, or 2.5 mg or 1.0 mg every other day) or placebo for three months and serum CTX-I as well as N-MID® Osteocalcin are measured frequently during a 24-hours period before drug administration and after one and three months.

[3] = test system: Serum CTX-I (bone resorption marker); assay: Serum CTX-I response to oral SCT in postmenopausal women, clinical trial; conditions: after the first dose, 0.15, 0.4, 1.0 or 2.5 mg, dose-dependent, compared with placebo
Source text: Serum CTX-I, or CrossLaps® (Nordic Bioscience Diagnostics A/S, cat. no. 4CRL4000) is an enzyme-immunoassay for quantitative assessment of bone resorption, and has been cleared by the FDA. It is based on two highly specific monoclonal antibodies against the amino acid sequence of EKAHD-β-GGR originating from the C-telopeptide of type I collagen. The aspartic acid residue (D) is β-isomerized. Standards, control, or unknown serum samples are pipetted into the appropriate microtitre wells coated with streptavidin, followed by application of a mixture of a biotinylated antibody and a peroxidase-conjugated antibody. […] Finally, the absorbance is measured.
as §1

salmon calcitonin [SCT]
Time to nadir of serum CTX-I post-treatment [1]: 2 to 4 h | Time to return of serum CTX-I to pre-treatment levels [1]: 24 h | Serum CTX-I: inhibition of bone resorption ([1]; cross-over vs placebo): marked dose-dependent inhibition of bone resorption | Changes of N-MID Osteocalcin [2]: non-significant | Serum CTX-I decrease from baseline [3]: −60.8 to −81.8%
